Earlier results, collected in US20210283219A1, “INHIBITION OF ALTERNATIVE COMPLEMENT PATHWAY FOR TREATMENT OF RETINAL ISCHEMIC INJURY AND GLAUCOMA” (Massachusetts Eye and Ear Infirmary, priority 2017, published 2021).

Molecular target: complement factor B (Homo sapiens, UniProt P00751)
Sequence (P00751 26-764, species assumed): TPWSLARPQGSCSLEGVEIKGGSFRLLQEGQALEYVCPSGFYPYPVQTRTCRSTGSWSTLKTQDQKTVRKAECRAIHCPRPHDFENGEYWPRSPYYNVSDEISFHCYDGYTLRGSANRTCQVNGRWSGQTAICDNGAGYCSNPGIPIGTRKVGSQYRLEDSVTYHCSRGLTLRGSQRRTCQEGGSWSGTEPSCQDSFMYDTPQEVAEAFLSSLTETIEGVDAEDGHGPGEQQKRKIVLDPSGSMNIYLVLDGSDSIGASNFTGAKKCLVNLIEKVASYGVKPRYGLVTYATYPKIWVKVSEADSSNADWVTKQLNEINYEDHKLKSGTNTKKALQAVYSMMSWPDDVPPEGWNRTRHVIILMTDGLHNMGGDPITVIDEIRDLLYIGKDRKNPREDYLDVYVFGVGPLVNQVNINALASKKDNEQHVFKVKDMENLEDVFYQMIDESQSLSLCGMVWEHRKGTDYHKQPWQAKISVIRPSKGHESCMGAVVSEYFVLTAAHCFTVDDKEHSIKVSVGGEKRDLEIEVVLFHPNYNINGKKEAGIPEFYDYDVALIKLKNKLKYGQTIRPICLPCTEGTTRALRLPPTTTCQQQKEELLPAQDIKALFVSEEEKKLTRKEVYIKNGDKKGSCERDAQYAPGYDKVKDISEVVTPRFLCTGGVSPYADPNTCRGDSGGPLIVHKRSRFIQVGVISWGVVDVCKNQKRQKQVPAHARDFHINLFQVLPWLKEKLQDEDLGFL

(2S)-2-[[(2S)-2 [[(2S)-2-[[(2S)-[[(2S)-2-[[(2S)-2-acetamido-5-(diaminomethylideneamino)pentanoyl]amino]-4-methylpentanoyl]amino]-4,4-dimethylpentanoyl]amino]-4-methylpentanoyl]amino]propanoyl]amino]-5-(diaminomethylideneamino)pentanoic acid [Compound 51]
inhibition of complement factor B: potently inhibits
